Experiments:
human μ opioid receptor = human μ opioid receptor (Homo sapiens, UniProt P35372); assay: Opioid receptor binding assay, [3H]DAMGO (μ)
human δ opioid receptor = human δ opioid receptor (Homo sapiens, UniProt P41143); assay: Opioid receptor binding assay, [3H]naltrindole (δ)
human κ opioid receptor = human κ opioid receptor (Homo sapiens, UniProt P41145); assay: Opioid receptor binding assay, [3H]U69,593 (κ)
mice = settings: cited from earlier work; for duration of action (antinociception): 1 mg/kg ip in mice
guinea pig μ receptors = settings: cited from earlier work
κ opioid receptors = settings: cited from earlier work

human κ opioid receptor, sequence (P41145 whole entry): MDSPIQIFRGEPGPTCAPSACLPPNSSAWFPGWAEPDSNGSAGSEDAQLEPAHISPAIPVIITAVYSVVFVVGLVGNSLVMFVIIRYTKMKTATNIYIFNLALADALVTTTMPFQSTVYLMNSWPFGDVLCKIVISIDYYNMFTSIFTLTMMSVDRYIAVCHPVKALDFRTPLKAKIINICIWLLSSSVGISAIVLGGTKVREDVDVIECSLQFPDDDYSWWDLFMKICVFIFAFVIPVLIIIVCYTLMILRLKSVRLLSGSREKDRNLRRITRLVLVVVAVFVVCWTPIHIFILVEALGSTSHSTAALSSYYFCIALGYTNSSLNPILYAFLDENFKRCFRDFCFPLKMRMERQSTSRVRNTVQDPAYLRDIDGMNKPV
human δ opioid receptor, sequence (P41143 whole entry): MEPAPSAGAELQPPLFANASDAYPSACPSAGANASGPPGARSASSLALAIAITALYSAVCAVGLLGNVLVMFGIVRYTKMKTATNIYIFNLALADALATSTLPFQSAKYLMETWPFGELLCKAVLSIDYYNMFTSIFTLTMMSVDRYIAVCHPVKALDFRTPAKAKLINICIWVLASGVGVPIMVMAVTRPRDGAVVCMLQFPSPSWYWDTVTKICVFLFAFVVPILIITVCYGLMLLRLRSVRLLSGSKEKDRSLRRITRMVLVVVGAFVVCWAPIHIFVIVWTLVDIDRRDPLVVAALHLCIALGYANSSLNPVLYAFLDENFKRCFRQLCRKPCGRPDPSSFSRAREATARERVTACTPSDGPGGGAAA
human μ opioid receptor, sequence (P35372 whole entry): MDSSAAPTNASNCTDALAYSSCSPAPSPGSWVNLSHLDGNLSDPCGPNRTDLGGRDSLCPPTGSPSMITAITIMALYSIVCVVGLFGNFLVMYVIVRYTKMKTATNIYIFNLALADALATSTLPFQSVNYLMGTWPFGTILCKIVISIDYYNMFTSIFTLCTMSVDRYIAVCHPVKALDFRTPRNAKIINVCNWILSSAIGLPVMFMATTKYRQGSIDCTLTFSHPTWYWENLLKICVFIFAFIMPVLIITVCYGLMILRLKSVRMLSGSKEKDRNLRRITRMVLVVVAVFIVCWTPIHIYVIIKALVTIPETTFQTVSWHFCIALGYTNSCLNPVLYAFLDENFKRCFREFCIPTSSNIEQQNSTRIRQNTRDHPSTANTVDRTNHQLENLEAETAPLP

Structure (SMILES) | Ki (human μ opioid receptor) [nM] | Ki (human δ opioid receptor) [nM] | Ki (human κ opioid receptor) [nM] | duration of action (antinociception) (mice) [h] | antinociception activity (mice; studies in vivo) | affinity for μ opioid receptors (guinea pig μ receptors) | affinity for κ opioid receptors (κ opioid receptors)
CC1C2Cc3ccc(C(=O)NCCc4ccc(-c5cccc(N(C)C)c5)cc4)cc3C1(C)CCN2CC1CC1 (centres unmarked) [SJJ-B-074c] | 0.18 ± 0.055 | 2.5 ± 0.17 | 0.26 ± 0.022 | – | – | – | –
C[C@H]1[C@H]2Cc3ccc(O)cc3[C@]1(C)CCN2CC1CC1 [cyclazocine] | – | – | – | 2 | – | – | –
CC1C2Cc3ccc(C(=O)NCCc4ccc(-c5ccc(N)cc5)cc4)cc3C1(C)CCN2CC1CC1 (centres unmarked) [SJJ-B-112g] | 0.0014 ± 0.0001 | 1.5 ± 0.078 | 0.39 ± 0.0085 | – | – | – | –
CC1C2Cc3ccc(C(=O)NCCc4ccc(-c5ccc(CN(C)C)cc5)cc4)cc3C1(C)CCN2CC1CC1 (centres unmarked) [SJJ-C-013b] | 0.094 ± 0.0054 | 3.7 ± 0.15 | 1.9 ± 0.014 | – | – | – | –
CC1C2Cc3ccc(C(=O)NCCc4ccc(-c5ccc(NC(=O)OC(C)(C)C)cc5)cc4)cc3C1(C)CCN2CC1CC1 (centres unmarked) [SJJ-C-027b] | 0.32 ± 0.015 | 3.1 ± 0.34 | 3.4 ± 0.32 | – | – | – | –
C[C@H]1C2Cc3ccc(C(N)=O)cc3[C@@]1(C)CCN2CC1CC1 [Example 8-CAC, 8-carboxamidocyclazocine] | – | – | – | 15 | high antinociception activity | high affinity | high affinity
